These results are taken from paper PMC12903969, “Discovery of a Novel and Potent Kir4.1 Inhibitor as a Safe and Rapid‐Onset Antidepressant Agent in Mice” (Advanced Science, 2025).

Values joined by “and” are separate entries in the source; they are usually repeats but may differ in a detail not shown here. Equal entries are not always repeated. Where two headings read alike, the source gives them in different places.

One data set has as its target T1, Kir4.1 E158N (Homo sapiens, UniProt P78508, E158N).
T1 construct: expressed in transfected cells; host or cells: CHO-K1
T1 sequence (P78508 1-379 E158N): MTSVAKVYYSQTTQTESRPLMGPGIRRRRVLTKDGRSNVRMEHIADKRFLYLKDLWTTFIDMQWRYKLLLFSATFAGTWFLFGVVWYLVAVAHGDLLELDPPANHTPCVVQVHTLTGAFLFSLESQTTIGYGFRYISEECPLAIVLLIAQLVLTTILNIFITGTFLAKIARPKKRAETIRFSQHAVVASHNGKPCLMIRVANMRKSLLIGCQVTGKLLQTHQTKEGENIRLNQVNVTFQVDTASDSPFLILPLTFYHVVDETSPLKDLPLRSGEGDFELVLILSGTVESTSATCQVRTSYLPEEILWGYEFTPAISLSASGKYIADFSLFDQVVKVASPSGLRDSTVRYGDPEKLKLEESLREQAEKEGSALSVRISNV
Briefly: Whole-cell patch clamp, Kir4.1 point mutant E158N. The data set is classed as cell-based. How it is done: Plasmids encoding WT human potassium channels Kir1.1, Kir2.1, Kir2.2, Kir4.1, and Kir4.2 were obtained from the Beijing Genomics Institute. All point mutations were constructed using the QuickChange II Site‐Directed Mutagenesis Kit (Stratagene) and subsequently verified by sequencing.
CHO‐K1 cells were maintained in DMEM/F12 growth medium containing 10% fetal bovine serum. Plasmids encoding the target genes (3600 ng) and enhanced green fluorescent protein (400 ng) were cotransfected into cells using Lipofectamine 2000 (Invitrogen) in accordance with the manufacturer's instructions. Cells were seeded onto poly‐d‐lysine (PDL)‐coated glass coverslips 1 h prior to electrophysiological recordings. All cells were cultured under standard conditions of 5% CO2 at 37 °C.
Whole‐cell patch‐clamp recordings were obtained either in transiently transfected CHO‐K1 cells or in primary cultured astrocytes at room temperature using standard patch‐clamp techniques with an Axopatch‐700B amplifier (Axon Instruments). The signals were filtered at 2 kHz and sampled at 20 kHz using the Digidata 1440A interface (Axon Instruments). The resistance of borosilicate glass pipettes was typically 2–4 MΩ when filled with the internal solution. Drug application was facilitated using a BPS perfusion system (ALA Scientific Instruments). Macroscopic currents generated by expressed potassium channels were recorded under the voltage‐clamp conditions with an internal pipette solution composed of (in mM): 140 KCl, 5 NaCl, 1 CaCl2, 1 MgCl2, 10 HEPES, and 10 EGTA, pH 7.2 adjusted with KOH. The external solution contained (in mM): 140 NaCl, 5 KCl, 2 CaCl2, 1 MgCl2, 10 glucose, and 10 HEPES, pH 7.4 adjusted with NaOH. Currents were elicited with a hyperpolarized voltage at −120 mV from the holding potential of −80 mV, followed by a ramp voltage depolarizing to +50 mV. Astrocytic resting membrane potentials were recorded under current‐clamp conditions (I = 0 pA) using standard internal and external solutions, determined immediately after achieving whole‐cell mode.
A general note: In patch-clamp work, channel activity is measured electrically.

In another data set the target is T2, 5-HT2A receptor (Homo sapiens, UniProt P28223).
T2 construct: expressed in transfected cells
T2 sequence (P28223 whole entry): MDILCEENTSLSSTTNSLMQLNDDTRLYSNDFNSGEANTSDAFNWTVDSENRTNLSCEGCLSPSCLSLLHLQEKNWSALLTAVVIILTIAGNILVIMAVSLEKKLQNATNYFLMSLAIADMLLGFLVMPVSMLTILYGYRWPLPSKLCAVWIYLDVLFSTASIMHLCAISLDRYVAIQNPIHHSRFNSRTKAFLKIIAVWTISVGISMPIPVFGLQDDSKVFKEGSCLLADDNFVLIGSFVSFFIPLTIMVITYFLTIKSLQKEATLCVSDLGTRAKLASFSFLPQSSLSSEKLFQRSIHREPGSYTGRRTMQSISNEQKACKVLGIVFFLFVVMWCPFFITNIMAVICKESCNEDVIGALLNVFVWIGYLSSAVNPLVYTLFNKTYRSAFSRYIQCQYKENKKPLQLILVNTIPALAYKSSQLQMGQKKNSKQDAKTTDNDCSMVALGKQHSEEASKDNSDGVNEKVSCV
The experiment in a line: 5-HT2A functional assay (Fluo-4 calcium, FDSS). The format is cell-based. Here is the method: Cells with inducible expression of target receptor were cultured in 175‐cm^2 flasks until ≈80% confluence, washed once with phosphate‐buffered saline (PBS), and dissociated using 0.25% trypsin–EDTA. After neutralization with culture medium and centrifugation (800 rpm, 3 min), the cells were resuspended, counted, and seeded onto poly‐D‐lysine‐coated 96‐well black plates at a density of 4 × 10^4 cells/well. Expression of the target receptor was induced with 1 µg mL^−1 doxycycline. After 30 min at room temperature, the plates were incubated at 37 °C, 5% CO2 for 18−24 h until reaching ≈90% confluence. The medium was replaced with Ca^2⁺‐free extracellular buffer, washed once, and incubated with Fluo‐4 AM for 60 min at 37 °C in the dark. After washing twice with extracellular buffer, extracellular buffer was added (80 µL/well), and the cells were incubated for an additional 20 min at room temperature before fluorescence recording. Real‐time fluorescence changes were recorded using an FDSS/µCell system at 480 nm excitation and 540 nm emission with a sampling rate of 1 Hz. After a 10‐s baseline, the test compounds were added (20 µL/well), and fluorescence was recorded for 180 s. Subsequently, […] was added (20 µL/well), and the signals were monitored for a total of 360 s.
The agonistic effect (%) of compounds was calculated as follows: (1) Agonist%=Rcompound−Rcontrol/Rcontrol×100% where R control is the maximal fluorescence ratio after the addition of 0.5% DMSO and R compoundis the ratio obtained after compound treatment. Fluorescence response curves and EC50 values were used to evaluate the agonistic potency. The extracellular (Ca^2+‐free) buffer contained (in mM): 140 NaCl, 5 KCl, 1 MgCl2, 10 glucose, 10 HEPES, 2 probenecid; pH adjusted to 7.4 with NaOH.

Data set [1] can be described thus: Plasma/tissue (kidney) distribution. The data set is classed as in vivo. Particulars: male, C57BL/6J, mouse, ip, mice (N = 3), 10 mg/kg i.p. Here is the method:
Male C57BL/6J mice were used for both blood–brain penetration and plasma/tissue distribution studies, with mice assigned to three groups: 10 mg kg^−1 JX3212 (n = 3), 20 mg kg^−1 JX3212 (n = 3) for blood–brain penetration, and 10 mg kg^−1 JX3212 for plasma/tissue distribution (all administered via intraperitoneal injection), where mice in the blood–brain penetration groups were fasted for 12 h prior to drug administration and 2 h post‐administration; 1 h after drug administration, 0.2 mL of blood was collected from the retro‐orbital/orbital venous plexus into 1.5 mL heparinized tubes, centrifuged at 11 000 rpm for 5 min to obtain plasma (stored at −80 °C for blood–brain penetration groups), while whole brains were excised for blood–brain penetration groups and whole brains plus kidneys (rinsed with physiological saline, blotted dry on filter paper, and accurately weighed) for the plasma/tissue distribution group; plasma samples (20 µL) were mixed with 20 µL internal standard solution and 300 µL acetonitrile for protein precipitation, vortexed for 15 min, centrifuged at 3700 rpm for 15 min at 4 °C, and the supernatant was collected, whereas brain and kidney samples were homogenized in acetonitrile at 10× tissue weight (8000 rpm, 3 × 30 s), sonicated for 5 min, and processed identically to plasma samples; the concentrations of JX3212 in plasma and tissues were quantified by liquid chromatography–tandem mass spectrometry (LC−MS/MS), with lower limits of quantification set to 50 ng mL^−1 for plasma and 50 ng g^−1 for brain tissue.

As for `c1ccc2c(c1)oc1ccc(Nc3ccnc(NCCCN4CCOCC4)n3)cc12` [JX3212, N^4-(dibenzo[b,d]furan-2-yl)-N^2-(3-morpholinopropyl)pyrimidine-2,4-diamine], the inhibition (usually the share of the control response that was lost under treatment) at 3 µM on Kir4.1 E158N (3 µM, mean ± SEM, read-out: current inhibition, Kir4.1 E158N) amounted to 29.4 ± 2.66%; on Kir4.1 E158N (JX3212 3 µM (Fig 2D), read-out: Mutation: E158N inhibition, single recordings), 27.7%. The “Mutation: E158N inhibition, single recordings” value on Kir4.1 E158N (JX3212 3 µM (Fig 2D)) was 26.6694 and 31.4659 and 31.9554. For the same compound, at 5-HT2A receptor (agonistic effect), the EC50 (commonly the concentration giving half of the maximal effect) is over 60 µM. Besides, the activation at 60 µM at 5-HT2A receptor (read-out: 5-HT2A agonistic effect, replicates, concentration 60 (presumably µM)) was determined as 61.8%. Besides, the Emax at 5-HT2A receptor (read-out: 5-HT2A max activation%) came to 58.6%. Moreover, the concentration at 1 h in data set [1] (kidney, read-out: Kidney Calculated Concentration) was 18400 ± 681 ng/mL; in data set [1] (plasma, read-out: Plasma Calculated Concentration) it was 234 ± 14.4 ng/mL. For the same compound, the Kp (in general, the ratio of the level in a tissue or fluid to that in plasma or blood) at 1 h in data set [1] (kidney/plasma) came out at 78.9 ± 2.74.
